Here are results for 9 compounds from publication PMC10647704 (Molecules, 2023).

Converted amounts (≈) assume the structure as drawn. Like-named read-outs stand apart in the source and are kept apart here.

Data set [1] has as its system C. albicans S1 (FLU-sensitive). Description: Turbidity assay (MIC and IC50) in C. albicans S1. The class given is cell-based.
Data set [2] has as its system C. albicans S1 (FLU-sensitive). Description: Colorimetric resazurin assay (MIC) in C. albicans S1. The class given is cell-based. Particulars: read-out: MIC, colorimetric assay. (Alamar Blue is a resazurin reagent that responds to reducing activity.)
The subject of data set [3] is human epidermoid carcinoma cells KB-3-1. Description: MTT cell viability assay in KB-3-1 cells. The class given is cell-based. The conditions noted are these: for IC50: 24 h incubation, 48 h of treatment; for fungal selectivity (ratio of the IC50 in KB-3-1 cells to the IC50 in S1 cells): KB-3-1 vs C. albicans S1. Here is the method:
MTT assays were then performed to assess the effect of the test compounds on human epidermoid carcinoma cells KB-3-1 (24 h incubation).
The cell viability assay was performed in human epidermoid carcinoma cells KB-3-1. Initially, 5 × 10^3 cells were seeded into each well in a 96-well plate. […] After 48 h of treatment, 20 µL of MTT solution (5 mg/mL) was added to each well and allowed to incubate for 3.5 h. Subsequently, DMSO was added to each well upon removal of the MTT solution. The Abs570nm values were then measured using an accuSkanTM GO UV/VIS Microplate Spectrophotometer (Fisher Sci., Fair Lawn, NJ, USA).

For data set [4], the target named is yeast plasma membrane H+-ATPase (Pma1p) (Candida albicans, UniProt P28877). In words: Medium acidification assay in C. albicans S1. The class given is cell-based. The conditions noted are these: change in pH at 30 min, highest test concentration 30 µM, mean ± SEM of three experiments.
yeast plasma membrane H+-ATPase (Pma1p), sequence (P28877 whole entry): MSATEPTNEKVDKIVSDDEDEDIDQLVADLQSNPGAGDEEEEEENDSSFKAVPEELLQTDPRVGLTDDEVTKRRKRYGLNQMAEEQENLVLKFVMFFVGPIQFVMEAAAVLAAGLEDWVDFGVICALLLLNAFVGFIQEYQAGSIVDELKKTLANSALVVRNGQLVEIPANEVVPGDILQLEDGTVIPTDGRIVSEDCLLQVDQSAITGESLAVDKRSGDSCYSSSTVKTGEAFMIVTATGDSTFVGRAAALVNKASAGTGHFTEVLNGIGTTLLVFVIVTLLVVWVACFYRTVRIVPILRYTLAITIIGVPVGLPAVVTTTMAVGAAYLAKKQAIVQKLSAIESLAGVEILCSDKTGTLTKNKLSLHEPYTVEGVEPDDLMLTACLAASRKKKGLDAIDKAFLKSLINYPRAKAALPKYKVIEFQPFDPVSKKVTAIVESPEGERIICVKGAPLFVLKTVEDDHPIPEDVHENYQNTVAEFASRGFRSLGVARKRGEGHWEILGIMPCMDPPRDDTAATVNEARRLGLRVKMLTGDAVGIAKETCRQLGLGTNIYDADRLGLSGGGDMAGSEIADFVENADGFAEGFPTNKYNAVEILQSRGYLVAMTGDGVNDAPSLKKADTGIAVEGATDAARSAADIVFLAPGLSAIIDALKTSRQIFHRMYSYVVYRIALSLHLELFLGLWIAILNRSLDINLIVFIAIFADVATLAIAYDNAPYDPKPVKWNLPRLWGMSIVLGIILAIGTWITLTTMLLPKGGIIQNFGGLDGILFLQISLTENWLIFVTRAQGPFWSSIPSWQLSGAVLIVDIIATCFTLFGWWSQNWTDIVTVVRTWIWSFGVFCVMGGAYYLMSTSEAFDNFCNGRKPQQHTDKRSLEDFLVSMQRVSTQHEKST
The subject of data set [5] is reconstructed human epidermis. Description: In vitro skin irritation test on reconstructed human epidermal model (EpiDerm, OECD TG 439). The class given is cell-based. As for the experimental part: The in vitro skin irritation test was performed using MatTek Corporation’s Reconstructed Human Epidermal Model EpiDerm™ following the manufacturer’s instructions, which fulfills the criteria set forth in the Organization for Economic Co-operation and Development.
Briefly, we applied either 30 µL of CHB4 or CHB6, PBS, 0.1% DMSO or 30 µL of 1% Triton-X100 (positive control for irritation). All plates were then incubated in a humidified environment for an additional 35 ± 1 min at 37 ± 1 °C, 5 ± 1% CO2, and 90% ± 10% relative humidity (RH). Once the 1 h incubation period was completed for the dosed tissues, all plates were removed from the incubator and placed in a sterile hood. The tissues were then rinsed 15 times with sterile PBS. The blotted tissue inserts were then incubated for 42 ± 2 h after which time the cell viability was determined using the MTT assay as described.

Data set [6] addresses Na+, K+-ATPase (purified from pig kidney outer medulla) (Sus scrofa, UniProt P05024). In words: Na+,K+-ATPase activity assay. The class given is biochemical. Particulars: test concentrations similar to the MIC concentrations; micromolar range; prevented by 5 mM GSH.
The subject of data set [7] is C. albicans S1. In words: Mouse model of vulvovaginal candidiasis (VVC). The conditions noted are these: for expression of MPO in vaginal tissue (IHC): day 6, compared to 6th day infected and vehicle groups; for PMN counts of vaginal tissues: day 6, compared to control and vehicle group; for histopathology of vaginal tissue (H&E): day 6, infected and treated mice; for gross markers of the health of the mice: intravaginal suspension, over the course of the study; for Log CFU/100 μL / Remaining C. albicans S1 Compared to Control (100%): vaginal lavage day 6, intravaginal once daily days 3-5, CHB 12.5 mg/kg, MICO 2% cream.

The test system of data set [8] is breast cancer cell line MCF-7. Set-up: method as in PMID 31683558. Particulars: breast cancer cell line MCF-7 ref 23; cited from earlier work.
[9] abbreviates: Candida albicans, 24 h; read-out: MIC, turbidity assay.
[10] abbreviates: Candida albicans, 48 h; read-out: MIC, turbidity assay.
[11] abbreviates: Candida albicans; Abs600nm at 48 h; read-out: Turbidity Assay IC50 C. albicans S1.
The mark [12] stands for this setting: Candida albicans, C. albicans S1, 24 h, resazurin.
Where [13] appears, read: Candida albicans, C. albicans S1, 48 h, resazurin.
The mark [14] stands for this setting: Homo sapiens, KB 3-1, KB-3-1 cells, read-out: MTT Assay IC50 KB-3-1 Cells.
Setting [15] is: Candida albicans, 24 h, read-out: MIC, turbidity assay.
Where [16] appears, read: Candida albicans, 48 h, read-out: MIC, turbidity assay.
The mark [17] stands for this setting: Candida albicans, 48 h, read-out: Turbidity Assay IC50 C. albicans S1.
The mark [18] stands for this setting: Homo sapiens, KB 3-1, read-out: MTT Assay IC50 KB-3-1 Cells, KB-3-1 cells.
[19] abbreviates: read-out: IC50MA (medium acidification).
[20] abbreviates: Abs600nm at 48 h; read-out: Turbidity Assay IC50 C. albicans S1.
Where [21] appears, read: C. albicans S1, 24 h; for FLU the lowest concentration causing 70% decrease in turbidity; read-out: MIC, turbidity assay.
Where [22] appears, read: C. albicans S1, 48 h; for FLU the lowest concentration causing 70% decrease in turbidity; read-out: MIC, turbidity assay.
Setting [23] is: Candida albicans, 48 h, Abs600nm at 48 h; read-out: Turbidity Assay IC50 C. albicans S1.
[24] abbreviates: KB-3-1 cells, read-out: MTT Assay IC50 KB-3-1 Cells.

One may read the MIC as the least concentration at which growth counts as inhibited.

`C[C@@H]1[C@@H](n2[se]c3ccccc3c2=O)C[C@H]2C[C@@H]1C2(C)C` [CHB1]: the MIC in data set [1] (setting [9]) is 12.5 µM (≈ 4.18 µg/mL); in data set [1] (setting [10]), 12.5 µM (≈ 4.18 µg/mL); in data set [2] (setting [12]) it was 12.5 µM (≈ 4.18 µg/mL); in data set [2] (setting [13]) it was 6.3 µM (≈ 2.11 µg/mL). For the same compound, the IC50 in data set [1] (setting [11]) was 7.3 ± 0.1 µM; in data set [3] (setting [14]), 28.1 ± 1.5 µM; in data set [4] (IC50MA (medium acidification)), more than 30 µM.

Consider `C[C@H]1CC[C@@H]2[C@H]([C@@H]1n1[se]c3ccccc3c1=O)C2(C)C` [CHB4], for which the MIC in data set [1] (setting [15]) came out at 12.5 µM (≈ 4.18 µg/mL). In data set [1] (setting [16]), the MIC was found to be 12.5 µM (≈ 4.18 µg/mL). In addition, in data set [1] (setting [17]), the IC50 was 7.7 ± 0.1 µM. In addition, the MIC in data set [2] (Candida albicans, 24 h) is 6.3 µM (≈ 2.11 µg/mL). Also, the MIC in data set [2] (Candida albicans, 48 h) worked out at 12.5 µM (≈ 4.18 µg/mL). In addition, the IC50 in data set [3] (setting [18]) amounted to 17.9 ± 3.1 µM. For the same compound, the “fungal selectivity (ratio of the IC50 in KB-3-1 cells to the IC50 in S1 cells)” value in data set [3] came out at 2.3. For the same compound, the IC50 in data set [4] (setting [19]) was found to be 13.8 ± 1.1 µM. In addition, the skin irritation result in data set [5] (test concentrations up to 100 µM) was “no skin irritation”. The “inhibitory activity towards the Na+, K+-ATPase” value in data set [6] is given as “possess inhibitory activity”. For the same compound, in data set [7], the “expression of MPO in vaginal tissue (IHC)” value is on record as “decrease”; the “PMN counts of vaginal tissues” value was “less PMN counts compared to control and vehicle group”; the “histopathology of vaginal tissue (H&E)” value is reported as “slight epithelial distress”; the “gross markers of the health of the mice” value is listed as “without affecting any gross markers of the health of the mice”. Besides, in data set [7], the “Log CFU/100 μL” value was 4.448 Log CFU/100 μL and the “Remaining C. albicans S1 Compared to Control (100%)” value came to 6.607%.

Regarding `O=c1c2ccccc2[se]n1-c1ccccc1` [EB, Ebselen, reference compound], the IC50 in data set [1] (setting [20]) was 17.1 ± 1.01 µM; in data set [1] (setting [23]), approximately 17 µM; in data set [3] (setting [14]) it was 89.7 µM; in data set [3] (setting [24]) it was 89.7 ± 3.42 µM. The MIC in data set [1] (setting [21]) worked out at 25.0 µM (≈ 6.85 µg/mL); in data set [1] (setting [22]), 25.0 µM (≈ 6.85 µg/mL); in data set [1] (setting [9]), 25 µM (≈ 6.85 µg/mL); in data set [1] (setting [10]), 25 µM (≈ 6.85 µg/mL); in data set [2] (C. albicans S1, 24 h, resazurin) it was 25.0 µM (≈ 6.85 µg/mL); in data set [2] (C. albicans S1, 48 h, resazurin), 25.0 µM (≈ 6.85 µg/mL). Besides, the MIC in data set [2] (setting [12]) and in data set [2] (setting [13]) was 25 µM (≈ 6.85 µg/mL) in each case. For the same compound, the “inhibitory activity towards the Na+, K+-ATPase” value in data set [6] is given as “possess inhibitory activity”.

Take `Clc1ccc(COC(Cn2ccnc2)c2ccc(Cl)cc2Cl)c(Cl)c1` (centres unmarked) [Miconazole (MICO), miconazole, reference compound]: in data set [7], the “histopathology of vaginal tissue (H&E)” value was “slight epithelial distress”, the “Log CFU/100 μL” value is 4.470 Log CFU/100 μL and the “Remaining C. albicans S1 Compared to Control (100%)” value is reported as 6.950%.

With `CC1(C)C2CCC(Cn3[se]c4ccccc4c3=O)C1C2` (single isomer, unassigned; (-)) [CHB3], the MIC in data set [1] (setting [21]) was 25.0 µM (≈ 8.36 µg/mL); in data set [1] (setting [22]) it was 25.0 µM (≈ 8.36 µg/mL); in data set [1] (setting [15]) it was 25 µM (≈ 8.36 µg/mL); in data set [1] (setting [16]), 25 µM (≈ 8.36 µg/mL); in data set [2] (Candida albicans, 24 h) it was 12.5 µM (≈ 4.18 µg/mL); in data set [2] (Candida albicans, 48 h), 25 µM (≈ 8.36 µg/mL). Further, the IC50 in data set [1] (setting [17]) was 18.1 ± 0.2 µM; in data set [3] (setting [18]), more than 60 µM; in data set [3] (read-out: MTT Assay IC50 KB-3-1 Cells, KB-3-1 cells), 65.7 ± 4.4 µM; in data set [4] (setting [19]), more than 30 µM.

Turning to `C[C@@H]1C[C@H]2[C@@H](C[C@H]1n1[se]c3ccccc3c1=O)C2(C)C` [CHB5], the MIC came to 25 µM (≈ 8.36 µg/mL) in data set [1] (setting [9]), 12.5 µM (≈ 4.18 µg/mL) in data set [1] (setting [10]), 12.5 µM (≈ 4.18 µg/mL) in data set [2] (setting [12]) and 25 µM (≈ 8.36 µg/mL) in data set [2] (setting [13]). Moreover, the IC50 in data set [1] (setting [11]) is 7.5 ± 0.1 µM; in data set [3] (setting [14]), more than 90 µM; in data set [3] (setting [24]), 94.1 ± 4.7 µM; in data set [4] (IC50MA (medium acidification)) it was more than 30 µM.

As to `OC(Cn1cncn1)(Cn1cncn1)c1ccc(F)cc1F` [FLU, fluconazole, reference compound], the IC50 in data set [1] (setting [20]) is 6.01 ± 0.1 µM; in data set [1] (setting [23]) it was approximately 6 µM; in data set [3] (setting [14]) it was more than 1000 µM; in data set [4] (setting [19]), more than 30 µM. Moreover, the MIC in data set [1] (setting [21]) is 25.0 µM (≈ 7.66 µg/mL); in data set [1] (setting [22]) it was 25.0 µM (≈ 7.66 µg/mL); in data set [1] (setting [9]) it was 25 µM (≈ 7.66 µg/mL); in data set [1] (setting [10]) it was 25 µM (≈ 7.66 µg/mL).

Consider `CC(C)[C@@H]1CC[C@@H](C)C[C@H]1n1[se]c2ccccc2c1=O` [CHB6, (−)-N-(1R,2S,5R)-menthyl-1,2-benzizoselenazol-3(2H)-one], for which the MIC was found to be 3.1 µM (≈ 1.04 µg/mL) in data set [1] (setting [15]); 3.1 µM (≈ 1.04 µg/mL) in data set [1] (setting [16]); 3.1 µM (≈ 1.04 µg/mL) in data set [2] (Candida albicans, 24 h); 3.1 µM (≈ 1.04 µg/mL) in data set [2] (Candida albicans, 48 h). Besides, the IC50 in data set [1] (setting [17]) is 1.8 ± 0.1 µM; in data set [3] (setting [18]), 48.5 ± 5.9 µM; in data set [4] (setting [19]) it was more than 30 µM; in data set [8], 11.9 ± 0.2 µM. Also, the “fungal selectivity (ratio of the IC50 in KB-3-1 cells to the IC50 in S1 cells)” value in data set [3] stood at 26.9. The skin irritation entry in data set [5] (test concentrations up to 50 µM) was “no skin irritation”. Further, the “inhibitory activity towards the Na+, K+-ATPase” value in data set [6] is listed as “possess inhibitory activity”. In addition, in data set [7], the “expression of MPO in vaginal tissue (IHC)” value is “decrease”. Moreover, in data set [7], the “PMN counts of vaginal tissues” value is “less PMN counts compared to control and vehicle group”. In data set [7], the “histopathology of vaginal tissue (H&E)” value is “slight epithelial distress”. For the same compound, the “gross markers of the health of the mice” value in data set [7] is recorded as “without affecting any gross markers of the health of the mice”. The “Log CFU/100 μL” value in data set [7] is reported as 3.655 Log CFU/100 μL. In addition, the “Remaining C. albicans S1 Compared to Control (100%)” value in data set [7] is given as 1.064%.

Consider `C[C@H]1[C@H](n2[se]c3ccccc3c2=O)C[C@@H]2C[C@H]1C2(C)C` [CHB2], for which the MIC in data set [1] (setting [9]), in data set [1] (setting [10]), in data set [2] (setting [12]) and in data set [2] (setting [13]) was 12.5 µM (≈ 4.18 µg/mL) in each case. In addition, the IC50 in data set [1] (setting [11]) is 7.6 ± 0.1 µM; in data set [3] (setting [14]), 25.5 ± 1.9 µM; in data set [4] (IC50MA (medium acidification)) it was more than 30 µM.
